Reference: ChEMBL document CHEMBL5034019, “Discovery of the Next-Generation Pan-TRK Kinase Inhibitors for the Treatment of Cancer” (J Med Chem, 2021)
In brackets after ≈: the same amount, converted by molar mass. Activity calls are given as the source filed them. No cut-off for these calls is given here.

What was measured:
BaF3 [1] = test: cells; settings: Mus musculus
Description: Cytotoxicity against mouse BaF3 cells transfected with TrKA assessed as reduction in cell viability by MTT assay

[2] = Apparent permeability across apical to basolateral side in human Caco-2 cells incubated for 2 hrs by LC-MS/MS analysis; format: ADME, cell-based
Cytochrome P450 1A2 = biological target: T1, Cytochrome P450 1A2 (Homo sapiens, UniProt P05177); test: Inhibition of CYP1A2 in human pooled liver microsomes using phenacetin as substrate in presence of NADPH by LC-MS/MS analysis; format: ADME
T1 sequence (P05177 whole entry): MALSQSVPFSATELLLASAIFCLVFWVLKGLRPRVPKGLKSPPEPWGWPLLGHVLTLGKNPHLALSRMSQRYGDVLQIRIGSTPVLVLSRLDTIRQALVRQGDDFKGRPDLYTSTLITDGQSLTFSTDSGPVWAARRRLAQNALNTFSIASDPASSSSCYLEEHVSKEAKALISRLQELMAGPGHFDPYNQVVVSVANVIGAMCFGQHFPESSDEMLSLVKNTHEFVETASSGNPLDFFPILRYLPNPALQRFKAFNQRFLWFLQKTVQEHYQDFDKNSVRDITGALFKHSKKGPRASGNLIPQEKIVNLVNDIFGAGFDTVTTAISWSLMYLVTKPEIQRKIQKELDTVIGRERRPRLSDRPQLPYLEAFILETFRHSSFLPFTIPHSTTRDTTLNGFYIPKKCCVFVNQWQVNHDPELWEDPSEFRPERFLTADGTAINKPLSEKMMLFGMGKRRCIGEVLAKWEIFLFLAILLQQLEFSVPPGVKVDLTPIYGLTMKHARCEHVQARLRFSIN

[3] = Toxicity in […] xenografted with mouse BaF3 cells transfected with LMNA-NTRK1-G595R mutant assessed as death at 100 mg/kg, po administered once daily for 21 days and measured twice weekly; format: organism-based; settings: in vivo, 504 h, time 21 day
BaF3 [4] = test: Cytotoxicity against mouse BaF3 cells transfected with TrKA G595R mutant assessed as reduction in cell viability by MTT assay; format: functional, cell-based
[5] = Metabolic stability in human liver microsomes assessed as intrinsic clearance at 1 uM by LC-MS/MS analysis; format: ADME, Microsome; settings: read-out: CLH
BaF3 [6] = test: Cytotoxicity against mouse BaF3 cells transfected with TrKA G623R mutant assessed as reduction in cell viability by MTT assay; format: functional, cell-based
[7] = Metabolic stability in mouse liver microsomes assessed as intrinsic clearance at 1 uM by LC-MS/MS analysis; format: ADME, Microsome; settings: read-out: CLH
BaF3 [8] = test: Cytotoxicity against mouse BaF3 cells transfected with TrKA F589L mutant assessed as reduction in cell viability by MTT assay; format: functional, cell-based
[9] = Metabolic stability in rat liver microsomes assessed as intrinsic clearance at 1 uM by LC-MS/MS analysis; format: ADME, Microsome; settings: read-out: CLH
Cytochrome P450 2D6 = Cytochrome P450 2D6 (Homo sapiens, UniProt P10635); test: Inhibition of CYP2D6 in human pooled liver microsomes using dextromethorphan as substrate in presence of NADPH by LC-MS/MS analysis; format: ADME
[10] = Protein binding in rat plasma assessed as unbound fraction by LC-MS/MS based equilibrium dialysis method; format: ADME, cell-free
[11] = Protein binding in dog plasma assessed as unbound fraction by LC-MS/MS based equilibrium dialysis method; format: ADME, cell-free, Canis lupus familiaris
[12] = Protein binding in mouse plasma assessed as unbound fraction by LC-MS/MS based equilibrium dialysis method; format: ADME, cell-free
[13] = Metabolic stability in dog liver microsomes assessed as intrinsic clearance at 1 uM by LC-MS/MS analysis; format: ADME, Canis lupus familiaris, Microsome; settings: read-out: CLH
Cytochrome P450 2C19 = Cytochrome P450 2C19 (Homo sapiens, UniProt P33261); test: Inhibition of CYP2C19 in human pooled liver microsomes using S-mephenytoin as substrate in presence of NADPH by LC-MS/MS analysis; format: ADME
Cytochrome P450 3A4 = Cytochrome P450 3A4 (Homo sapiens, UniProt P08684); test: Inhibition of CYP3A4 in human pooled liver microsomes using midazolam and testosterone as substrate in presence of NADPH by LC-MS/MS analysis; format: ADME
[14] = Protein binding in human plasma assessed as unbound fraction by LC-MS/MS based equilibrium dialysis method; format: ADME, cell-free
BaF3 [15] = test: Cytotoxicity against mouse BaF3 cells transfected with TrKA G667A mutant assessed as reduction in cell viability by MTT assay; format: functional, cell-based
BaF3 [16] = test: Cytotoxicity against mouse BaF3 cells transfected with SLC34A2-Ros1 assessed as reduction in cell viability by MTT assay; format: functional, cell-based
Cytochrome P450 2C9 = Cytochrome P450 2C9 (Homo sapiens, UniProt P11712); test: Inhibition of CYP2C9 in human pooled liver microsomes using diclofenac as substrate in presence of NADPH by LC-MS/MS analysis; format: ADME
[17] = Cmax in Sprague-Dawley rat at 10 mg/kg, po measured up to 24 hrs by LC-MS/MS analysis; format: ADME, organism-based; design: route oral, dose 10 mg/kg, time <=24; settings: in vivo
Homo sapiens = species: Homo sapiens; test: Inhibition of recombinant […] human B-Raf V599E mutant (416 to end residues) assessed as residual activity at 0.5 uM using myelin basic protein as substrate incubated for 40 mins in presence of [gamma-33ATP] by scintillation counting based radiometry assay relative to control
[18] = biological target: Hepatocyte growth factor receptor (Homo sapiens) (UniProt P08581); test: Inhibition of recombinant human MET (974 to end residues) assessed as residual activity at 0.5 uM using KKKGQEEEYVFIE as substrate incubated for 40 mins in presence of [gamma-33ATP by scintillation counting based radiometry assay relative to control
[19] = system: Platelet-derived growth factor receptor alpha (Homo sapiens), P16234 [D842V]; test: Inhibition of human PDGFRalpha D842V mutant (550 to end residues) assessed as residual activity at 0.5 uM using poly(Glu, Tyr) 4:1 as substrate measured after 40 mins in presence of [gamma33P]ATP by scintillation counting based radiometry assay relative to control
[20] = biological target: High affinity nerve growth factor receptor (Homo sapiens, UniProt P04629, G595R)
[21] = AUC (0 to t) in male Sprague-Dawley rat at 10 mg/kg, po measured up to 24 hrs by LC-MS/MS analysis; format: ADME, organism-based; design: route oral, dose 10 mg/kg, time <=24; settings: in vivo
[22] = Kinetic solubility of the compound; format: physicochemical; settings: read-out: Kinetic_solubility
[23] = biological target: Serine/threonine-protein kinase B-raf (Homo sapiens) (UniProt P15056); test: Inhibition of recombinant […] human B-Raf (416 to end residues) assessed as residual activity at 0.5 uM using myelin basic protein substrate incubated for 40 mins in presence of [gamma-33ATP] by scintillation counting based radiometry assay relative to control
[24] = Cmax in male Sprague-Dawley rat at 10 mg/kg, po measured up to 24 hrs by LC-MS/MS analysis; format: ADME, organism-based; design: route oral, dose 10 mg/kg, time <=24; settings: in vivo
BaF3 [25] = test: Antitumor activity against mouse BaF3 cells transfected with LMNA-NTRK1 xenografted in mouse assessed as tumor growth inhibition at 5 to 20 mg/kg, po administered once daily for 21 days and measured twice weekly; settings: dose 5-20 mg/kg, time 21.0 day

Chain of Cytochrome P450 2C9 (P11712 whole entry): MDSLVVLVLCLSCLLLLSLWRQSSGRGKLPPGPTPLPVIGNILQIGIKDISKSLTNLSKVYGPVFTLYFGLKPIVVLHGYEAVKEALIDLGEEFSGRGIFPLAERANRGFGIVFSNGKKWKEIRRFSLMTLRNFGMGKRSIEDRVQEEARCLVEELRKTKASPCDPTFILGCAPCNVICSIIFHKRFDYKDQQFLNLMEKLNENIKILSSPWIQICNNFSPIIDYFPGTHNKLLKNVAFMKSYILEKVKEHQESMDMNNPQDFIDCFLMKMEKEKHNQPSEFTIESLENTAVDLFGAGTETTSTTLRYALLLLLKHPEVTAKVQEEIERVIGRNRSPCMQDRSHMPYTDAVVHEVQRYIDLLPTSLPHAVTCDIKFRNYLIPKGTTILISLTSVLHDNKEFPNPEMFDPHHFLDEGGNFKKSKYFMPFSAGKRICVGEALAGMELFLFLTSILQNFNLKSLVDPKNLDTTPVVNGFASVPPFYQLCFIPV
Chain of Cytochrome P450 2C19 (P33261 whole entry): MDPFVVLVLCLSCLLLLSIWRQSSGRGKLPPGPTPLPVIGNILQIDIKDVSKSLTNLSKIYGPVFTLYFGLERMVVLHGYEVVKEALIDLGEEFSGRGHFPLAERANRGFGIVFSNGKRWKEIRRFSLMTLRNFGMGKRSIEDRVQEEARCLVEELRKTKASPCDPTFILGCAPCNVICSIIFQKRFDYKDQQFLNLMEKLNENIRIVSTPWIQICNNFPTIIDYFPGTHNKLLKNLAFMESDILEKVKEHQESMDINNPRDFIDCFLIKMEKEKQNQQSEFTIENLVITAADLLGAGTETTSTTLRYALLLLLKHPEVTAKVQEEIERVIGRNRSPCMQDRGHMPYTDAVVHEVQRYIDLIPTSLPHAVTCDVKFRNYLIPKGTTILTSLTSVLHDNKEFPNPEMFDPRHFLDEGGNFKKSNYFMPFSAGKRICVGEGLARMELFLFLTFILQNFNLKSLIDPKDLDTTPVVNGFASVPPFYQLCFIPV
Chain of Cytochrome P450 3A4 (P08684 whole entry): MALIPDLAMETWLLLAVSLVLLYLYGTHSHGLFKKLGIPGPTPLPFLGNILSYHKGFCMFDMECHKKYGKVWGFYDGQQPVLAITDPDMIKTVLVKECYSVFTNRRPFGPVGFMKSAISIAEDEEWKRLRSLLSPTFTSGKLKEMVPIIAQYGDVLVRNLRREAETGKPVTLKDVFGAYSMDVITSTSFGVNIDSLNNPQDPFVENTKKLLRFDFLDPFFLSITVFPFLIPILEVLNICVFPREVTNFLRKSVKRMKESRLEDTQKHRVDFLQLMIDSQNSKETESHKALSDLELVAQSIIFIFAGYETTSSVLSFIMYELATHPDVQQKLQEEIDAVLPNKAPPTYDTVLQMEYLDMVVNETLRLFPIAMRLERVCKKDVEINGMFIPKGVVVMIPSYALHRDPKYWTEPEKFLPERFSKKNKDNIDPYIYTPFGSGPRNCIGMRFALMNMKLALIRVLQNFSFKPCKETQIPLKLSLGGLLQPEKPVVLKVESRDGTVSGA
Chain of Cytochrome P450 2D6 (P10635 whole entry): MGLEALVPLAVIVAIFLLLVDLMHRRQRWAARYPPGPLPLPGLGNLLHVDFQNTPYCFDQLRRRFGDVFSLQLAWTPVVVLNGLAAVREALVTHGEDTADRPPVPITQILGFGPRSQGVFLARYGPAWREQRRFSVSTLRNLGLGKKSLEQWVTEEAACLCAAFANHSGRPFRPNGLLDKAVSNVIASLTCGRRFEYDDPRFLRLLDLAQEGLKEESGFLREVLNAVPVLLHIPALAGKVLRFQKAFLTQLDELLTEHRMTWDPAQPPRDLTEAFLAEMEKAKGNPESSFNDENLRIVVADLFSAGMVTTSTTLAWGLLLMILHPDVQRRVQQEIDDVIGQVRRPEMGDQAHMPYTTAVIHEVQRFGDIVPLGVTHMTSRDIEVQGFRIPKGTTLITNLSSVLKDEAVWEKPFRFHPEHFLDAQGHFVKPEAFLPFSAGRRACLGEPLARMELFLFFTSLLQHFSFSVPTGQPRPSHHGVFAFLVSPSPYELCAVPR
Chain of Platelet-derived growth factor receptor alpha (Homo sapiens), P16234 [D842V] (P16234 whole entry D842V): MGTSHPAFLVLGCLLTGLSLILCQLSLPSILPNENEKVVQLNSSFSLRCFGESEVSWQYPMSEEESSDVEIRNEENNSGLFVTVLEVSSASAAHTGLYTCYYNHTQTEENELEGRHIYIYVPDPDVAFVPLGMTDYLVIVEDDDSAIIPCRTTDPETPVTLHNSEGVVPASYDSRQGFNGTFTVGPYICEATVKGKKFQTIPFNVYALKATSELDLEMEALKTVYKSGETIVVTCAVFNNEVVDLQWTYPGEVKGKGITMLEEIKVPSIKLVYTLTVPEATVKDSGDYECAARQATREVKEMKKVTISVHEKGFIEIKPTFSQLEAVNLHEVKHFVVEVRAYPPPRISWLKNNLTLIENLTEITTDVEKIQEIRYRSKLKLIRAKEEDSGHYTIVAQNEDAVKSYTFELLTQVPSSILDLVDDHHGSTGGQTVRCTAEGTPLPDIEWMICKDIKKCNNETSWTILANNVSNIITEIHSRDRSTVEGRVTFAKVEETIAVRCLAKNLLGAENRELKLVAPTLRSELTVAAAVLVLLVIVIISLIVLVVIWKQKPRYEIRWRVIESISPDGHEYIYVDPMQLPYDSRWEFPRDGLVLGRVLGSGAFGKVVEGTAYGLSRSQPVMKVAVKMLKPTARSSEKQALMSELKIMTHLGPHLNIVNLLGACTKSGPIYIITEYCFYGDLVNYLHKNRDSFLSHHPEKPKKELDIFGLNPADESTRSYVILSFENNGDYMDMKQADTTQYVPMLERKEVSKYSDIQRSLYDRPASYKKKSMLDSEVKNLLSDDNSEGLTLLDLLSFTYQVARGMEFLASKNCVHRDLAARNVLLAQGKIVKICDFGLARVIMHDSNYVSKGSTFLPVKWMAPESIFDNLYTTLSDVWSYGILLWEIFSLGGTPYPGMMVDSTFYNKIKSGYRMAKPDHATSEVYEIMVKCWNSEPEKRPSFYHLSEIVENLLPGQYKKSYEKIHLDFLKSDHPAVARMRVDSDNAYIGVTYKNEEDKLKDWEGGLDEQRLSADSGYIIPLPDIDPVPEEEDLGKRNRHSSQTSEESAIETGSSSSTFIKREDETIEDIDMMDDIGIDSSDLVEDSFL
Chain of Serine/threonine-protein kinase B-raf (Homo sapiens) (P15056 whole entry): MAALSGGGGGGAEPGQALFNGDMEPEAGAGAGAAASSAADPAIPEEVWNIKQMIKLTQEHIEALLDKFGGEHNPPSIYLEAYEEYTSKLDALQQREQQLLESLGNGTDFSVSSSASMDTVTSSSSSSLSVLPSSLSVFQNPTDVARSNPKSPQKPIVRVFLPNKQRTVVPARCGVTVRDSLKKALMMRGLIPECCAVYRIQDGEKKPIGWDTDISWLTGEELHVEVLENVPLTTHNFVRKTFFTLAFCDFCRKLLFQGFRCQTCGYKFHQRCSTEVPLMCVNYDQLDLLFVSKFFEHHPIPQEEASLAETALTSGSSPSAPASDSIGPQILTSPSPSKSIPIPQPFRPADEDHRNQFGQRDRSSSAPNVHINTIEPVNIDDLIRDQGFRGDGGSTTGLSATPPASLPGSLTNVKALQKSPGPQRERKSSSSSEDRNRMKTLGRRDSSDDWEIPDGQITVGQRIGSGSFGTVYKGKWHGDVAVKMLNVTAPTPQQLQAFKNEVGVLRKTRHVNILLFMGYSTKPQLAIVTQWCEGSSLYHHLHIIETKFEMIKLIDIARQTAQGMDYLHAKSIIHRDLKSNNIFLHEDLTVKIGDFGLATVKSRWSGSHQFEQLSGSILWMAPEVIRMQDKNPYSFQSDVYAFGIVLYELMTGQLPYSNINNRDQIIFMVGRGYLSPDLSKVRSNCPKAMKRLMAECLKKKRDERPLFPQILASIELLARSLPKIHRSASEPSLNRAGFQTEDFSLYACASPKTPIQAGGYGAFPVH
Chain of High affinity nerve growth factor receptor (P04629 33-796 G595R limits assumed): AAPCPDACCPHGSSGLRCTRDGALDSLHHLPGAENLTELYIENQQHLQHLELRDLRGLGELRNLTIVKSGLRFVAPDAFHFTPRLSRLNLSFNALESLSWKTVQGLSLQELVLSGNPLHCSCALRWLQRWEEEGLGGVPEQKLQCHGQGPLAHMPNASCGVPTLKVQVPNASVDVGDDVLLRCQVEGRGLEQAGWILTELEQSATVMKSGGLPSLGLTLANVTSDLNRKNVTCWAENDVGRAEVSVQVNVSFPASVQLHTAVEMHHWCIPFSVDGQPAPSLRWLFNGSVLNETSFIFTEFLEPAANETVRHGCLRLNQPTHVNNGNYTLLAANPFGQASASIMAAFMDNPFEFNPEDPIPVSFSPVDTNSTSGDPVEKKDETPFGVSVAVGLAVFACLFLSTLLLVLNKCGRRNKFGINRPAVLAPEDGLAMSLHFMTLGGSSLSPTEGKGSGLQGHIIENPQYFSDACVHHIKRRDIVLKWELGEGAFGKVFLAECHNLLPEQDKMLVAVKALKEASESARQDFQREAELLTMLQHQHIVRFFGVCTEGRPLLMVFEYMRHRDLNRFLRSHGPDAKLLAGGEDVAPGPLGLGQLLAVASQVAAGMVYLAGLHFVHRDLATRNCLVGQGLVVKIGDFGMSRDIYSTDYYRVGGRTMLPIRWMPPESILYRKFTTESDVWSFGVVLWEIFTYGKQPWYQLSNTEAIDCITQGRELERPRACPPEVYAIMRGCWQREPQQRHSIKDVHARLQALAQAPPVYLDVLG

| Structure (SMILES) | IC50 (BaF3 [1]) | Papp A→B at 2 h [2] | IC50 (Cytochrome P450 1A2) | IC50 (BaF3 [4]) | CLint scaled at 1 µM [5] | IC50 (BaF3 [6]) | CLint scaled at 1 µM [7] | IC50 (BaF3 [8]) | CLint scaled at 1 µM [9] | IC50 (Cytochrome P450 2D6) | fraction unbound [10] | fraction unbound [11] | fraction unbound [12] | CLint scaled at 1 µM [13] | IC50 (Cytochrome P450 2C19) | IC50 (Cytochrome P450 3A4) | fraction unbound [14] | IC50 (BaF3 [15]) | IC50 (BaF3 [16]) | IC50 (Cytochrome P450 2C9) | also measured |
| --- | --- | --- | --- | --- | --- | --- | --- | --- | --- | --- | --- | --- | --- | --- | --- | --- | --- | --- | --- | --- | --- |
| C[C@@H]1CCc2ncc(F)cc2[C@H]2CCCN2c2ccn3ncc(c3n2)C(=O)N1 [SELITRECTINIB] | 4.9 nM | 8.4 ×10⁻⁶ cm/s | > 50000 nM | 6.8 nM | 76 mL/min/kg | 2.7 nM | 1350 mL/min/kg | 25.4 nM | 92 mL/min/kg | > 50000 nM | 0.03 | 0.2 | 0.02 | 38 mL/min/kg | > 50000 nM | > 50000 nM | 0.34 | 24.4 nM | 36.7 nM | > 50000 nM | Activity [3]: Toxic; Cmax [17]: 12.7 µM |
| O=C1NC2(CC2)COc2ncc(F)cc2[C@H]2COCCN2c2ccn3ncc1c3n2 | 0.6 nM | 12 ×10⁻⁶ cm/s | > 100000 nM | 7.7 nM | 17.7 mL/min/kg | 2.7 nM | 1500 mL/min/kg | 4.9 nM | 28.8 mL/min/kg | > 100000 nM | 0.12 | 0.21 | 0.11 | < 10.7 mL/min/kg | 89000 nM | > 50000 nM | 0.16 | 0.8 nM | 2.3 nM | 18100 nM | Activity (Homo sapiens): 87%; Activity [18]: 98%; Activity [19]: 102%; IC50 [20]: 3.5 nM; AUC(0-t) at 24 h [21]: 11.7 µM·h; solubility kinetic [22]: 193 µM (≈ 79.2 µg/mL); Activity [23]: 111%; Cmax [24]: 6.38 µM; Activity (BaF3 [25]): Active |
